This is an account of results in PubChem BioAssay (NCI).

Among the test systems are DU-145 prostate; IGROV1 ovarian; K-562 leukemia; KM12 colon; MALME-3M melanoma; NCI-H23 lung; SK-MEL-5 melanoma; TK-10 renal; EKVX NSCLC; SF-539 CNS.
Assay in all cases: DTP human tumour cell line panel, 48 h

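How tested: cells in 96-well plates exposed to compound for 48 hours at five concentrations. GI50 is the concentration that inhibits growth by half. At the TGI there is no net growth.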

One may read the GI50 as the concentration that inhibits growth by half. In general, TGI refers to the concentration at which net growth stops. High values mean less potent growth arrest, low ones more potent growth arrest. Turning to `COc1ccc(Nc2cc(C)nc(N3CCN(c4ccnc5cc(Cl)ccc45)CC3)n2)cc1`, the GI50 was 6.57 µM in the test with DU-145 prostate; 4.39 µM with IGROV1 ovarian; 2.34 µM in the test on K-562 leukemia; 1.64 µM in the test with KM12 colon; 3.17 µM in the test with MALME-3M melanoma; 3.82 µM with NCI-H23 lung. Moreover, the values for the GI50 in the test on SK-MEL-5 melanoma and with TK-10 renal were 1.67 µM and 3.64 µM, respectively. The total growth inhibition concentration (TGI) was over 100 µM in the test with DU-145 prostate; over 100 µM in the test with IGROV1 ovarian; over 100 µM with K-562 leukemia; 31.6 µM with KM12 colon; over 100 µM in the test on MALME-3M melanoma; over 100 µM in the test on NCI-H23 lung. Further, the total growth inhibition concentration (TGI) in the test with SK-MEL-5 melanoma is 3.35 µM; with TK-10 renal, 47.6 µM.

Regarding `O=C1CC(c2ccc(Cl)cc2)Oc2ccccc21` (stereo not given), the TGI is over 100 µM with DU-145 prostate; 54.8 µM in the test with EKVX NSCLC; 40.8 µM in the test with IGROV1 ovarian; 9.46 µM in the test on K-562 leukemia; 31.5 µM in the test with KM12 colon; 40.2 µM in the test on NCI-H23 lung. The total growth inhibition concentration (TGI) with SF-539 CNS stood at 26.1 µM; with SK-MEL-5 melanoma, 27.3 µM; with TK-10 renal, 63.4 µM.

Take `c1ccc(CNc2nc(Nc3ccccc3)nc3ccccc23)cc1`: the GI50 is 3.06 µM in the test on DU-145 prostate; 2.59 µM with IGROV1 ovarian; 2.92 µM in the test with KM12 colon; 1.7 µM in the test with MALME-3M melanoma; 2.17 µM in the test on NCI-H23 lung; 1.69 µM in the test on SF-539 CNS. For the same compound, the GI50 with SK-MEL-5 melanoma was 1.41 µM; in the test with TK-10 renal it was 2.02 µM. Also, the TGI in the test on DU-145 prostate was determined as 10.7 µM; in the test on IGROV1 ovarian it was 7.44 µM; in the test on KM12 colon it was 10.1 µM; in the test with MALME-3M melanoma, 3.38 µM; in the test on NCI-H23 lung, 9.25 µM; in the test with SF-539 CNS, 3.14 µM. Further, the TGI in the test on SK-MEL-5 melanoma is 2.76 µM; in the test with TK-10 renal it was 4.53 µM.

In the case of `ClCc1ccc(Cn2cnc3c(Cl)nc(Cl)nc32)cc1`, the GI50 with DU-145 prostate is 5.69 µM; in the test with EKVX NSCLC, 17.3 µM; with IGROV1 ovarian, 15.3 µM; in the test with K-562 leukemia, 23.3 µM; with KM12 colon, 1.8 µM; in the test on NCI-H23 lung it was 7.62 µM. Also, the GI50 with SF-539 CNS is 17.1 µM; in the test with SK-MEL-5 melanoma, 6.49 µM; with TK-10 renal, 6.68 µM. The TGI in the test on DU-145 prostate stood at 17.8 µM; in the test with EKVX NSCLC, 31.8 µM; with IGROV1 ovarian, 30.4 µM; in the test on K-562 leukemia, 66.5 µM; in the test on KM12 colon, 3.23 µM; with NCI-H23 lung, 23.2 µM. Besides, the TGI with SF-539 CNS was 31.1 µM; in the test on SK-MEL-5 melanoma, 19.2 µM; in the test with TK-10 renal it was 20.3 µM.

Take `O=C(Nc1ccc(Cl)c(Cl)c1)OCCN1c2ccccc2Sc2ccccc21`: the TGI with DU-145 prostate, with IGROV1 ovarian, with K-562 leukemia, in the test on KM12 colon, with MALME-3M melanoma and in the test with NCI-H23 lung was over 10 µM throughout. Further, the TGI with SF-539 CNS, with SK-MEL-5 melanoma and in the test on TK-10 renal was over 10 µM throughout.

For `CN1C(Cl)=NS(=O)(=O)c2ccccc21`, the concentration for total growth inhibition (TGI) in the test on DU-145 prostate, in the test on EKVX NSCLC, with IGROV1 ovarian, in the test with K-562 leukemia, in the test with KM12 colon and in the test on NCI-H23 lung was over 100 µM throughout. The TGI with SF-539 CNS, in the test on SK-MEL-5 melanoma and with TK-10 renal was over 100 µM each time.

As for `Cn1c(=O)c(Oc2ccc(F)cc2F)cc2cnc(NCCS(C)(=O)=O)nc21`, the GI50 with DU-145 prostate, with IGROV1 ovarian, in the test with K-562 leukemia, with KM12 colon, in the test with MALME-3M melanoma and with NCI-H23 lung was over 25 µM in each case. Further, the GI50 in the test on SF-539 CNS, in the test on SK-MEL-5 melanoma and in the test with TK-10 renal was over 25 µM throughout. Besides, the TGI in the test with DU-145 prostate, in the test with IGROV1 ovarian, with K-562 leukemia, with KM12 colon, in the test with MALME-3M melanoma and in the test on NCI-H23 lung was over 25 µM throughout. Besides, the TGI in the test on SF-539 CNS, in the test on SK-MEL-5 melanoma and with TK-10 renal was over 25 µM in each case.

For the compound `C=CS(=O)(=O)CCN1CC1`, the total growth inhibition concentration (TGI) in the test with DU-145 prostate, in the test on IGROV1 ovarian, with K-562 leukemia, in the test on KM12 colon, in the test on MALME-3M melanoma and in the test on NCI-H23 lung was over 10 µM throughout. In addition, the TGI in the test on SF-539 CNS, in the test on SK-MEL-5 melanoma and with TK-10 renal was over 10 µM throughout.

Take `CCN(CC)CCSCCCNc1c2ccc(Cl)cc2nc2ccc(OC)cc12`: the GI50 in the test with DU-145 prostate was 0.633 µM; in the test on EKVX NSCLC, 1.73 µM; in the test with IGROV1 ovarian, 1.56 µM; in the test with KM12 colon, 0.802 µM; in the test on MALME-3M melanoma it was 2.03 µM; in the test with NCI-H23 lung, 1.32 µM. The GI50 in the test with SF-539 CNS was 1.4 µM; with SK-MEL-5 melanoma, 1.8 µM; with TK-10 renal it was 1.55 µM. Further, the TGI with DU-145 prostate stood at 3.01 µM; in the test with EKVX NSCLC, 4.72 µM; in the test on IGROV1 ovarian it was 4.74 µM; in the test with KM12 colon it was 5.03 µM; in the test on MALME-3M melanoma it was 3.73 µM; in the test with NCI-H23 lung it was 3.28 µM. For the same compound, the results for the concentration for total growth inhibition (TGI) in the test on SF-539 CNS, with SK-MEL-5 melanoma and in the test with TK-10 renal were 2.97 µM, 3.24 µM and 3.87 µM, respectively.

As for `COc1ccc(-c2nn(-c3cccc(NC(=O)c4ccc(N5CCOCC5)c(C(F)(F)F)c4)c3)cc2-c2ccncc2)cc1Cl`, the GI50 in the test on DU-145 prostate was over 50 µM; in the test with IGROV1 ovarian, over 50 µM; in the test with K-562 leukemia, 1.89 µM; with KM12 colon, 2.11 µM; with MALME-3M melanoma, 5.05 µM; in the test on NCI-H23 lung it was 29.9 µM. Also, the GI50 in the test on SF-539 CNS is 2.66 µM; in the test with SK-MEL-5 melanoma it was 6.4 µM; with TK-10 renal it was over 50 µM. In addition, the TGI in the test with DU-145 prostate, in the test on IGROV1 ovarian, in the test on K-562 leukemia, in the test with KM12 colon, in the test with MALME-3M melanoma and in the test with NCI-H23 lung was over 50 µM each time. In addition, the results for the TGI in the test on SF-539 CNS, in the test with SK-MEL-5 melanoma and in the test on TK-10 renal were 36.3 µM, over 50 µM and over 50 µM, respectively.
